Measurements published in publication PMC9541320, “Machine Learning Guided Discovery of Non‐Hemolytic Membrane Disruptive Anticancer Peptides” (Chemmedchem, 2022).
≈ marks a conversion by molar mass, not a printed value. Read-outs that look alike come from different tables or passages of the source. Where a SMILES comes first, the peptide text is derived from it. Where no end group is shown, it is not given here. [ ]: non-standard residue; d: D form.

Experiments:
HEK293 cells = assay: Cell viability assay by AlamarBlue, HEK293 cells (model for non-cancer cells); type: cell-based; conditions: 72 h incubation at 37 °C in DMEM high glucose medium with 10 % FBS; read-out: Toxicity IC50 HEK 293
Method: (§2) To measure potential ACP activity, we exposed HeLa cells to 50 μM of each peptide for 72 h and quantified remaining live cells with Alamar Blue. We performed full IC50 determination for active sequences under the same conditions and similarly profiled HEK293 cells as a model for non‐cancer cells.
(§3) Cell Viability assay by AlamarBlue. […] HEK‐293 were seeded into well plates, pretreated with solution of poly‐L‐Lysine. The medium was removed and the compounds at increasing concentration were added into the wells. The cells were incubated for 72 h in 200 μL/well at 37 °C in corresponding medium in the presence of 5 % CO2. After incubation time the medium was removed and replaced by 100 μL/well of medium containing 10 % AlamarBlue. The cells were incubated for 3–5 h at 37 °C with 5 % CO2 in a humidified atmosphere. The fluorescence was then measured on a Tecan Infinite M1000 Pro plate reader at λex 560 nm and λem 590 nm. The value was normalized according to the untreated cells.

HeLa cells = assay: Cell viability assay by AlamarBlue, HeLa cells; type: cell-based; conditions: 72 h incubation at 37 °C in DMEM high glucose medium with 10 % FBS; read-out: Toxicity IC50 HeLa
Method: as §2, §3

P. aeruginosa PAO1 (WT) = type: cell-based, Pseudomonas aeruginosa
Method: (§1) […]. Minimal inhibitory concentration (MIC) determination. The minimal inhibitory concentration (MIC) was determined by using broth microdilution method. Antimicrobial activity was assayed against P. aeruginosa PAO1 (WT), Acinetobacter baumannii (ATCC19606). […]. The next day, 15 μL of MTT solution was added to each well of the plate, such a way that MIC was defined as the lowest concentration of the peptide that inhibited visible growth of the tested bacteria.

[1] = tested on: Acinetobacter baumannii (ATCC19606); type: cell-based
Method: as §1

[2] = tested on: human red blood cells (hRBC); assay: Hemolysis assay on human red blood cells; type: cell-based
From the text: Synthesis and bioactivity testing. We prepared the 33 selected peptides, as well as the reference ACP LL‐III, by semi‐automated high‐temperature Fmoc solid‐phase peptide synthesis and obtained pure samples by preparative HPLC. All peptides were well‐behaved in terms of aqueous solubility, in line with the presence of two to seven cationic residues (lysine or arginine) in each sequence (Table 1). […]. We performed full IC50 determination for active sequences under the same conditions and similarly profiled HEK293 cells as a model for non‐cancer cells. Finally, we determined peptide concentrations causing 50 % hemolysis (HC50) on human red blood cells (hRBC) by serial 2‐fold dilution.
Hemolysis assay. Compounds were subjected to a hemolysis assay to assess the hemolytic effect on human red blood cells (hRBCs). […]. Controls on each plate included a blank medium control (PBS 100 μL) and a hemolytic activity control (0.1 % Triton^TM X‐100). 100 μL of hRBC suspension was incubated with 100 μL of each sample in PBS in V‐shape 96‐well plate. […]. Hemolysis was measured by analyzing the absorbance of free hemoglobin leaked out of compromised in the supernatants at 540 nm with a plate reader (Tecan instrument Infinite M1000). The percentage of hemolysis at each concentration was detected and HC50 was determined.

[3] = tested on: human red blood cells (hRBC); conditions: below 200 μM; cited from earlier work
[4] = incubation 16–20 h at 37 °C in MH medium
[5] = human red blood cells in 10 mM phosphate buffer saline, pH 7.4, 25 °C

| Compound | IC50 (HEK293 cells) | IC50 (HeLa cells) | MIC PAO1 (P. aeruginosa PAO1 (WT); [4]) | MIC A. baumannii [1, 4] | Hemolysis HC50 hRBC ([2]; pH 7.4) | MIC PAO1 (P. aeruginosa PAO1 (WT); PAO1) | MIC A. baumannii ([1]; ATCC19606) | documented hemolysis [3] | Hemolysis HC50 hRBC [2, 5] |
| --- | --- | --- | --- | --- | --- | --- | --- | --- | --- |
| anwkkwigkviklvk [DB1] | 13.1 ± 2.8 µM | 6.2 ± 1.1 µM | 4 µg/mL | 2 µg/mL | – | – | – | – | – |
| C[C@@H](NC(=O)[C@H](N)Cc1ccccc1)C(=O)N[C@H](CCCCN)C(=O)N[C@H](CCCCN)C(=O)N[C@H](Cc1ccccc1)C(=O)N[C@H](Cc1ccccc1)C(=O)N[C@H](CCCCN)C(=O)N[C@H](CCCCN)C(=O)N[C@H](Cc1ccccc1)C(=O)N[C@H](C)C(=O)N[C@H](CCCCN)C(=O)N[C@H](Cc1ccccc1)C(=O)N[C@H](C)C(=O)N[C@H](Cc1ccccc1)C(=O)N[C@H](CCCCN)C(N)=O [DA1, fakkffkkfakfafk] (H-[dF][dA][dK][dK][dF][dF][dK][dK][dF][dA][dK][dF][dA][dF][dK]-NH2) | 15 ± 2.3 µM | 7.9 ± 0.3 µM | – | – | >200 µM | 4 µg/mL (≈ 2.12 µM) | 4 µg/mL (≈ 2.12 µM) | – | – |
| VNWKKILGKIIKVVK-NH2 [LL‐III, lasioglossin III] | 15 ± 3 µM | 6 ± 0.5 µM | – | 4 µg/mL | – | – | – | non‐hemolytic | >200 µM |
| CC[C@@H](C)[C@@H](NC(=O)[C@@H](CCCCN)NC(=O)[C@@H](CCCCN)NC(=O)[C@@H](Cc1c[nH]c2ccccc12)NC(=O)[C@@H](CC(N)=O)NC(=O)[C@H](N)C(C)C)C(=O)N[C@H](CC(C)C)C(=O)NCC(=O)N[C@H](CCCCN)C(=O)N[C@@H](C(=O)N[C@@H](C(=O)N[C@H](CCCCN)C(=O)N[C@@H](C(=O)N[C@@H](C(=O)N[C@H](CCCCN)C(N)=O)C(C)C)C(C)C)[C@H](C)CC)[C@H](C)CC [DLL‐III, vnwkkilgkiikvvk] (H-[dV][dN][dW][dK][dK][dI][dL]G[dK][dI][dI][dK][dV][dV][dK]-NH2) | 14.5 ± 2 µM | 5 ± 0.7 µM | 4 µg/mL (≈ 2.27 µM) | 2 µg/mL (≈ 1.13 µM) | – | – | – | – | >200 µM |
